The values below come from ChEMBL document CHEMBL5724914, “Linking interpersonal differences in gut microbiota composition and drug biotransformation activity” (2024).

For data set [1] the following is noted: human gut metagenome, 24 h, 2 µM.
The conditions of data set [2]: human gut metagenome, 24 h, 2 µM. This is another data set of the same source.
The nature of data set [3]: The drug is tested on WLS-098 corresponding to human gut metagenome with ENA study accession number: PRJEB37062 and ENA sample accession number: ERS12561754 for biotransformation under anaerobic condition. The drug concentrations were measured over 9 timepoints collected between 0 and 24 hours of incubation by liquid-chromatography-coupled mass spectrometry (LC–MS). The following applies: 2 µM.

A short description of data set [4]: The drug is tested on WLS-073 corresponding to human gut metagenome with ENA study accession number: PRJEB37062 and ENA sample accession number: ERS12561749 for biotransformation under anaerobic condition. The drug concentrations were measured over 9 timepoints collected between 0 and 24 hours of incubation by liquid-chromatography-coupled mass spectrometry (LC–MS). Conditions: 2 µM.

For data set [5] the following is noted: human gut metagenome, 24 h, 2 µM. The source holds these as a separate data set.
For data set [6] the following is noted: human gut metagenome, 24 h, 2 µM. This is another data set of the same source.
The conditions of data set [7]: human gut metagenome, 24 h, 2 µM. The source holds these as a separate data set.
The conditions of data set [8]: human gut metagenome, 24 h, 2 µM. The source holds these as a separate data set.
The conditions of data set [9]: human gut metagenome, 24 h, 2 µM. This is another data set of the same source.
For data set [10] the following is noted: human gut metagenome, 24 h, 2 µM. This is another data set of the same source.
Data set [11] is described as follows: The drug is tested on WLS-240 corresponding to human gut metagenome with ENA study accession number: PRJEB37062 and ENA sample accession number: ERS12561773 for biotransformation under anaerobic condition. The drug concentrations were measured over 9 timepoints collected between 0 and 24 hours of incubation by liquid-chromatography-coupled mass spectrometry (LC–MS). Conditions: 2 µM.

Data set [12] is described as follows: The drug is tested on WLS-038 corresponding to human gut metagenome with ENA study accession number: PRJEB37062 and ENA sample accession number: ERS12561745 for biotransformation under anaerobic condition. The drug concentrations were measured over 9 timepoints collected between 0 and 24 hours of incubation by liquid-chromatography-coupled mass spectrometry (LC–MS). The following applies: 2 µM.

Data set [13] is described as follows: The drug is tested on WLS-350 corresponding to human gut metagenome with ENA study accession number: PRJEB37062 and ENA sample accession number: ERS12561789 for biotransformation under anaerobic condition. The drug concentrations were measured over 9 timepoints collected between 0 and 24 hours of incubation by liquid-chromatography-coupled mass spectrometry (LC–MS). Conditions: 2 µM.

A short description of data set [14]: The drug is tested on WLS-006 corresponding to human gut metagenome with ENA study accession number: PRJEB37062 and ENA sample accession number: ERS12561741 for biotransformation under anaerobic condition. The drug concentrations were measured over 9 timepoints collected between 0 and 24 hours of incubation by liquid-chromatography-coupled mass spectrometry (LC–MS). Conditions: 2 µM.

Data set [15] is described as follows: The drug is tested on Z-001 corresponding to mouse gut metagenome with ENA study accession number: PRJEB37062 and ENA sample accession number: ERS12561801 for biotransformation under anaerobic condition. The drug concentrations were measured over 9 timepoints collected between 0 and 24 hours of incubation by liquid-chromatography-coupled mass spectrometry (LC–MS). Conditions: 2 µM.
Further: call rule not given here.

Take `CNCC[C@H](Oc1cccc2ccccc12)c1cccs1` [DULOXETINE]: the “Bacterial Biotransformation” value is “Compound NOT metabolized” in [1]; “Compound metabolized” in data set [2]; “Compound metabolized” in data set [3]; “Compound NOT metabolized” in data set [4]; “Compound NOT metabolized” in data set [5]; “Compound NOT metabolized” in data set [6]. The “Bacterial Biotransformation” value in data set [7] is “Compound NOT metabolized”; in [8], “Compound NOT metabolized”; in data set [9], “Compound metabolized”; in [10], “Compound metabolized”; in data set [11], “Compound NOT metabolized”; in data set [12], “Compound NOT metabolized”. Besides, the entries for the “Bacterial Biotransformation” value in data set [13] and in [14] were “Compound NOT metabolized” and “Compound metabolized”, respectively.
Consider `CC#CCn1c(N2CCC[C@@H](N)C2)nc2c1c(=O)n(Cc1nc(C)c3ccccc3n1)c(=O)n2C` [LINAGLIPTIN], for which the “Bacterial Biotransformation” value in data set [1] is recorded as “Compound NOT metabolized”; in [2], “Compound NOT metabolized”; in data set [3], “Compound NOT metabolized”; in data set [4], “Compound metabolized”; in [5] it was “Compound NOT metabolized”; in [6] it was “Compound NOT metabolized”. For the same molecule, the “Bacterial Biotransformation” value in data set [7], in data set [9], in data set [10], in data set [11], in data set [12] and in data set [13] was “Compound NOT metabolized” throughout.
As to `CCOC(=O)C1=C(C)NC(C)=C(C(=O)OC)C1c1cccc([N+](=O)[O-])c1` (configuration not stated) [NITRENDIPINE], the “Bacterial Biotransformation” value in data set [1], in data set [2], in data set [3], in [4], in data set [5] and in [6] was “Compound metabolized” throughout. Further, the “Bacterial Biotransformation” value in data set [8], in data set [9], in data set [10], in data set [11], in [12] and in [13] was “Compound metabolized” throughout. The “Bacterial Biotransformation” value in data set [14] is listed as “Compound metabolized”.
Take `Cc1nc(Nc2ncc(C(=O)Nc3c(C)cccc3Cl)s2)cc(N2CCN(CCO)CC2)n1` [DASATINIB ANHYDROUS]: the “Bacterial Biotransformation” value in data set [1] is on record as “Compound NOT metabolized”; in data set [2], “Compound metabolized”; in data set [3], “Compound metabolized”; in data set [4], “Compound metabolized”; in [5], “Compound metabolized”; in data set [6] it was “Compound metabolized”. Also, the “Bacterial Biotransformation” value is on record as “Compound NOT metabolized” in data set [7]; “Compound metabolized” in data set [8]; “Compound metabolized” in [9]; “Compound metabolized” in data set [10]; “Compound metabolized” in [11]; “Compound metabolized” in data set [12]. The “Bacterial Biotransformation” value in [13] is reported as “Compound NOT metabolized”; in data set [14], “Compound metabolized”.
In the case of `N#Cc1ccc2c(c1)N(CCCN1CCC(O)CC1)c1ccccc1S2` [PERICIAZINE], the “Bacterial Biotransformation” value was “Compound NOT metabolized” in data set [1]; “Compound metabolized” in [2]; “Compound metabolized” in data set [3]; “Compound NOT metabolized” in data set [4]; “Compound metabolized” in data set [5]; “Compound metabolized” in data set [6]. Moreover, the “Bacterial Biotransformation” value is “Compound NOT metabolized” in data set [7]; “Compound metabolized” in data set [8]; “Compound metabolized” in data set [9]; “Compound metabolized” in data set [10]; “Compound metabolized” in data set [11]; “Compound metabolized” in [12]. Also, the “Bacterial Biotransformation” value in [13] and in data set [14] was “Compound NOT metabolized” each time.
`O=C([O-])C[C@H](O)C[C@H](O)/C=C/c1c(C2CC2)nc2ccccc2c1-c1ccc(F)cc1.O=C([O-])C[C@H](O)C[C@H](O)/C=C/c1c(C2CC2)nc2ccccc2c1-c1ccc(F)cc1.[Ca+2]` [PITAVASTATIN CALCIUM]: the “Bacterial Biotransformation” value in data set [1], in data set [2], in data set [3], in [4], in data set [5] and in [6] was “Compound metabolized” throughout. Further, the “Bacterial Biotransformation” value in data set [7] is reported as “Compound NOT metabolized”; in data set [8] it was “Compound metabolized”; in data set [9], “Compound metabolized”; in data set [10] it was “Compound NOT metabolized”; in data set [11], “Compound metabolized”; in data set [12] it was “Compound metabolized”. The “Bacterial Biotransformation” value in data set [13] was “Compound NOT metabolized”; in [14], “Compound metabolized”.
For the molecule `CCCCC(=O)O[C@]1(C(=O)CO)[C@@H](C)C[C@H]2[C@@H]3CCC4=CC(=O)C=C[C@]4(C)[C@@]3(F)[C@@H](O)C[C@@]21C` [BETAMETHASONE VALERATE], the “Bacterial Biotransformation” value in data set [1] is “Compound NOT metabolized”; in data set [2], “Compound metabolized”; in data set [3] it was “Compound NOT metabolized”; in data set [4] it was “Compound NOT metabolized”; in data set [5], “Compound metabolized”; in data set [6], “Compound metabolized”. The “Bacterial Biotransformation” value in data set [7] is reported as “Compound NOT metabolized”; in data set [8] it was “Compound metabolized”; in [9] it was “Compound metabolized”; in data set [10], “Compound metabolized”; in data set [11] it was “Compound metabolized”; in [12], “Compound metabolized”. The “Bacterial Biotransformation” value in [13] is “Compound NOT metabolized”; in [14], “Compound metabolized”.
As to `CN(C)CCc1c[nH]c2ccc(CS(=O)(=O)N3CCCC3)cc12` [ALMOTRIPTAN], the “Bacterial Biotransformation” value in data set [1] is “Compound NOT metabolized”; in [2], “Compound metabolized”; in data set [3] it was “Compound metabolized”; in [4], “Compound NOT metabolized”; in [5], “Compound NOT metabolized”; in [6], “Compound NOT metabolized”. The “Bacterial Biotransformation” value in data set [7] is “Compound NOT metabolized”; in [8], “Compound NOT metabolized”; in [9], “Compound metabolized”; in [10], “Compound NOT metabolized”; in data set [11], “Compound metabolized”; in [12], “Compound NOT metabolized”. Further, the “Bacterial Biotransformation” value in [13] and in data set [14] was “Compound NOT metabolized” each time.
In the case of `N[C@@H](Cc1ccc(N(CCCl)CCCl)cc1)C(=O)O`, the “Bacterial Biotransformation” value was “Compound metabolized” in [1]; “Compound metabolized” in [2]; “Compound metabolized” in data set [3]; “Compound metabolized” in [4]; “Compound NOT metabolized” in [6]; “Compound metabolized” in [7]. Besides, the “Bacterial Biotransformation” value is “Compound metabolized” in data set [9]; “Compound NOT metabolized” in data set [10]; “Compound metabolized” in data set [15]; “Compound NOT metabolized” in data set [11]; “Compound metabolized” in data set [12]; “Compound NOT metabolized” in data set [13]. Also, in [14], the “Bacterial Biotransformation” value is recorded as “Compound metabolized”.
